This passage reports IC50 results from patent publication US10696692B2, “Amido-benzyl sulfone and sulfoxide derivates” (Forma TM, LLC, priority 2012, dated 2020).

Where two headings read alike, the source gives them in different places.

One assay deals with NAMPT (Homo sapiens (Human), UniProt P43490). The assay can be described thus: Assay 1: Biochemical Inhibition Assay (NAMPT enzymatic reaction, NMN quantified by mass spectrometry).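 Further: recombinant His-tagged human NAMPT preincubated with compound 15 min, then reacted 30 min at rt with 1 µM NAM, 100 µM PRPP, 2.5 mM ATP, NMN product read by RapidFire MS, normalized to L-Cystathionine internal standard.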
Chain of NAMPT (P43490 whole entry): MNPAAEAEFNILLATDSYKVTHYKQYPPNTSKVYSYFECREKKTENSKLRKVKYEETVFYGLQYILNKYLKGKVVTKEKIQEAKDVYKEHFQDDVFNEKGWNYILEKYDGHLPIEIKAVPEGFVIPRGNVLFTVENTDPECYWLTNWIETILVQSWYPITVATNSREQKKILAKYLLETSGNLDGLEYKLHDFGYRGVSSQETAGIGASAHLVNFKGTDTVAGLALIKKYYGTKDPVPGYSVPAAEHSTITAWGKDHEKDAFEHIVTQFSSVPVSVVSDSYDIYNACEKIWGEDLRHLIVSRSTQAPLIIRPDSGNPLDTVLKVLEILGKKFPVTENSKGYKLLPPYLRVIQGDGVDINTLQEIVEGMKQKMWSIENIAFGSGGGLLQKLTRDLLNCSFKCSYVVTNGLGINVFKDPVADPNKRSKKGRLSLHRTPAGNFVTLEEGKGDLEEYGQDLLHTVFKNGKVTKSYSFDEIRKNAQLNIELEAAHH
The next assay relates to A2780 cells. The assay can be described thus: Assay 2: In-Vitro Cell Proliferation Assay (A2780 cells, SRB readout, 72 hours).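 Further: viable cells counted via sulforhodamine B staining, absorbance at 570 nm, after 72 h exposure at 37 °C, DMSO 0.1% as control, media-only background subtracted.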 The class given is cell-based. The following applies: read-out: Cell Proliferation (IC50).
Where [1] appears, read: Homo sapiens, A2780, 72 h, A2780 cells, 72 hours, SRB.

Consider `O=C(NCc1ccc(S(=O)(=O)N2CCC(O)CC2)cc1)c1cnc2nccn2c1` [Example 29, Imidazo[1,2-a]pyrimidine-6-carboxylic acid 4-(4-hydroxy-piperidine-1-sulfonyl)-benzylamide], for which the IC50 at NAMPT (read-out: Biochemical (IC50)) stood at 7.5 nM; in the assay on A2780 cells (setting [1]) it was 545 nM.

Regarding `COCCN1CCN(S(=O)(=O)c2ccc(CNC(=O)c3ccc4nccn4c3)cc2)CC1` [Example 98, Imidazo[1,2-a]pyridine-6-carboxylic acid 4-[4-(2-methoxy-ethyl)-piperazine-1-sulfonyl]-benzylamide], the IC50 was 46.1 nM at NAMPT (read-out: Biochemical (IC50)) and 10.1 nM in the assay with A2780 cells (setting [1]).

For the compound `CC(C)(C)OC(=O)NCC12CC(CN1S(=O)(=O)c1ccc(CNC(=O)c3ccc4nccn4c3)cc1)C2` [Example 129, [2-(4-{[(Imidazo[1,2-a]pyridine-6-carbonyl)-amino]-methyl}-benzenesulfonyl)-2-aza-bicyclo[2.1.1]hex-1-ylmethyl]-carbamic acid tert-butyl ester], the IC50 at NAMPT (read-out: Biochemical (IC50)) stood at 34 nM; with A2780 cells (setting [1]), 8.75 nM.

Take `CC(C)CN1CCN(S(=O)(=O)c2ccc(CNC(=O)c3ccc4nccn4c3)cc2)CC1` [Example 43, Imidazo[1,2-a]pyridine-6-carboxylic acid 4-(4-isobutyl-piperazine-1-sulfonyl)-benzylamide]: the IC50 on NAMPT (read-out: Biochemical (IC50)) amounted to 21.6 nM; with A2780 cells (setting [1]), 7.2 nM.

As to `COCCN1CCN(S(=O)(=O)c2ccc(CNC(=O)c3cc4ccncc4o3)cc2)CC1` [Example 298, N-[[4-[4-(2-methoxyethyl)piperazin-1-yl]sulfonylphenyl]methyl]furo [2,3-c]pyridine-2-carboxamide], the values for the IC50 at NAMPT (read-out: Biochemical (IC50)) and with A2780 cells (setting [1]) were 90.6 nM and 24.6 nM, respectively.

Consider `CC(=O)N1CCC(S(=O)(=O)c2ccc(CNC(=O)c3cc4ccncc4o3)cc2)CC1` [Example 207, N-[[4-[(1-acetyl-4-piperidyl)sulfonyl]phenyl]methyl]furo[2,3-c]pyridine-2-carboxamide], for which the IC50 on NAMPT (read-out: Biochemical (IC50)) was 29.3 nM; in the assay with A2780 cells (setting [1]), 25 nM.

With `CN1CCC2(CC1)CN(S(=O)(=O)c1ccc(CNC(=O)c3ccc4nccn4c3)cc1)C2` [Example 271, N-[[4-[(7-methyl-2,7-diazaspiro[3.5]nonan-2-yl)sulfonyl]phenyl]methyl] imidazo[1,2-a]pyridine-6-carboxamide], the IC50 at NAMPT (read-out: Biochemical (IC50)) was determined as 27.5 nM; with A2780 cells (setting [1]), 12.1 nM.

For the compound `O=C(NCc1ccc(S(=O)(=O)N2CCC(C(F)(F)F)C2)cc1)c1ccc2nccn2c1` (racemic) [Example 111, Imidazo[1,2-a]pyridine-6-carboxylic acid 4-(3-trifluoromethyl-pyrrolidine-1-sulfonyl)-benzylamide], the IC50 at NAMPT (read-out: Biochemical (IC50)) came to 5.6 nM; in the assay with A2780 cells (setting [1]), 2.5 nM.

As to `O=C(NCc1ccc(S(=O)(=O)C2CCOCC2)cc1)c1ccc2nccn2c1` [Example 200, N-[(4-tetrahydropyran-4-ylsulfonylphenyl)methyl] imidazo[1,2-a]pyridine-6-carboxamide], the IC50 at NAMPT (read-out: Biochemical (IC50)) came out at 34.5 nM; in the assay with A2780 cells (setting [1]), 14.2 nM.

Regarding `O=C(NCc1ccc(S(=O)(=O)N2CC(F)(F)C2)cc1)c1cc2ccncc2o1` [Example 301, N-[[4-(3,3-difluoroazetidin-1-yl)sulfonylphenyl]methyl]furo [2,3-c]pyridine-2-carboxamide], the IC50 at NAMPT (read-out: Biochemical (IC50)) stood at 46.7 nM; with A2780 cells (setting [1]), 83.6 nM.

Consider `O=C(NCc1ccc(S(=O)(=O)C2CCN(CC(F)(F)F)CC2)cc1)c1cc2cnccc2[nH]1` [Example 66, 1H-Pyrrolo[3,2-c]pyridine-2-carboxylic acid 4-[1-(2,2,2-trifluoro-ethyl)-piperidine-4-sulfonyl]-benzylamide], for which the IC50 on NAMPT (read-out: Biochemical (IC50)) came out at 15.4 nM; with A2780 cells (A2780 cells, 72 hours, SRB), 3.2 nM.

Take `O=C(NCc1ccc([S+]([O-])C2CCN(CC(F)(F)F)CC2)cc1)N1Cc2ccncc2C1` (stereo not shown) [Example 376, N-[[4-[[1-(2,2,2-tnfluoroethyl)-4-piperidyl]sulfinyl]phenyl]methyl]-1,3-dihydropyrrolo[3,4-c]pyridine-2-carboxamide]: the IC50 at NAMPT (read-out: Biochemical (IC50)) came out at 5.82 nM; in the assay on A2780 cells (setting [1]) it was 8.54 nM.

Regarding `CC(C)(C)OC(=O)N1CCCC12CCCN(S(=O)(=O)c1ccc(CNC(=O)c3ccc4nccn4c3)cc1)CC2` (racemic) [Example 183], the IC50 at NAMPT (read-out: Biochemical (IC50)) is 8.99 nM; in the assay on A2780 cells (setting [1]), 0.76 nM.

For the compound `CCCN1CCC([S+]([O-])c2ccc(CNC(=O)N3Cc4ccncc4C3)cc2)CC1` (stereo not shown) [Example 377, N-[[4-[(1-propyl-4-piperidyl)sulfinyl]phenyl]methyl]-1,3-dihydropyrrolo[3,4-c]pyridine-2-carboxamide], the IC50 at NAMPT (read-out: Biochemical (IC50)) is 24.9 nM; in the assay on A2780 cells (setting [1]), 24.1 nM.

Turning to `CN1CCC2(C1)CN(S(=O)(=O)c1ccc(CNC(=O)c3cc4ccncc4o3)cc1)C2` [Example 197, N-[[4-[(6-methyl-2,6-diazaspiro[3.4]octan-2-yl)sulfonyl]phenyl]methyl] furo[2,3-c]pyridine-2-carboxamide], the figures for the IC50 at NAMPT (read-out: Biochemical (IC50)) and in the assay on A2780 cells (setting [1]) were 2.83 nM and 16.8 nM, respectively.

Consider `O=C(NCc1ccc(S(=O)(=O)N2CCOC3(CCOC3)C2)cc1)c1ccc2nccn2c1` (racemic) [Example 167, Imidazo[1,2-a]pyridine-6-carboxylic acid 4-(2,6-dioxa-9-aza-spiro[4.5]decane-9-sulfonyl)-benzylamide], for which the IC50 on NAMPT (read-out: Biochemical (IC50)) came out at 23.7 nM; with A2780 cells (setting [1]), 8.8 nM.

`O=C(NCc1ccc(S(=O)(=O)N2CC3CCC(C2)O3)cc1)c1cnc2nccn2c1` [Example 26, Imidazo[1,2-a]pyrimidine-6-carboxylic acid 4-(8-oxa-3-aza-bicyclo[3.2.1]octane-3-sulfonyl)-benzylamide]: the IC50 turned out to be 4.6 nM at NAMPT (read-out: Biochemical (IC50)) and 135 nM in the assay on A2780 cells (setting [1]).

On to `O=C(NCc1ccc(S(=O)(=O)C2CCN(C3COC3)CC2)cc1)c1ccc2nccn2c1` [Example 248, N-[[4-[[1-(oxetan-3-yl)-4-piperidyl]sulfonyl]phenyl]methyl]imidazo[1,2-a] pyridine-6-carboxamide], for which the IC50 on NAMPT (read-out: Biochemical (IC50)) amounted to 19.4 nM; in the assay on A2780 cells (A2780 cells, 72 hours, SRB), 5.58 nM.

`CC(=O)N1CCC(S(=O)(=O)c2ccc(CNC(=O)c3ccc4nccn4c3)cc2)CC1` [Example 171, Imidazo[1,2-a]pyridine-6-carboxylic acid 4-(1-acetyl-piperidine-4-sulfonyl)-benzylamide]: the values for the IC50 on NAMPT (read-out: Biochemical (IC50)) and with A2780 cells (setting [1]) were 39.8 nM and 42.2 nM, respectively.

On to `O=C(NCc1ccc(S(=O)(=O)N2C[C@@H]3C[C@H]2CO3)cc1)c1ccc2nccn2c1` [Example 84, Imidazo[1,2-a]pyridine-6-carboxylic acid 4-[(1S,4S)-(2-oxa-5-aza-bicyclo[2.2.1]hept-5-yl)sulfonyl]-benzylamide], for which the IC50 is 37.4 nM at NAMPT (read-out: Biochemical (IC50)) and 16.6 nM in the assay on A2780 cells (setting [1]).

Turning to `O=C(NCc1ccc(S(=O)(=O)C2CCOCC2)cc1)c1cnc2nccn2c1` [Example 199, N-[(4-tetrahydropyran-4-ylsulfonylphenyl)methyl] imidazo[1,2-a]pyrimidine-6-carboxamide], the results for the IC50 on NAMPT (read-out: Biochemical (IC50)) and in the assay on A2780 cells (setting [1]) were 8.65 nM and 185 nM, respectively.

For `CC(C)CN1CCC([S+]([O-])c2ccc(CNC(=O)c3cnc4nccn4c3)cc2)CC1` (racemic) [Example 179, Imidazo[1,2-a]pyrimidine-6-carboxylic acid 4-(1-isobutyl-piperidine-4-sulfinyl)-benzylamide], the results for the IC50 on NAMPT (read-out: Biochemical (IC50)) and with A2780 cells (setting [1]) were 7.6 nM and 31.1 nM, respectively.

Consider `O=C(NCc1ccc(S(=O)(=O)C2CCN(CC(F)(F)F)CC2)cc1)c1cnc2nccn2c1` [Example 209, N-[[4-[[1-(2,2,2-trifluoroethyl)-4-piperidyl]sulfonyl]phenyl]methyl]imidazo[1,2-a]pyrimidine-6-carboxamide], for which the results for the IC50 at NAMPT (read-out: Biochemical (IC50)) and in the assay with A2780 cells (setting [1]) were 3.72 nM and 8.84 nM, respectively.

For the compound `NC12CC1CN(S(=O)(=O)c1ccc(CNC(=O)c3ccc4nccn4c3)cc1)C2` (stereo not shown) [Example 320, N-[[4-[(5-amino-3-azabicyclo[3.1.0]hexan-3-yl)sulfonyl]phenyl]methyl] imidazo[1,2-a]pyridine-6-carboxamide], the IC50 on NAMPT (read-out: Biochemical (IC50)) was 68.7 nM; with A2780 cells (setting [1]), 61.9 nM.

With `CCCN1CCC([S+]([O-])c2ccc(CNC(=O)c3cnc4[nH]ncc4c3)cc2)CC1` (stereo not shown) [Example 378, N-[[4-[(1-propyl-4-piperidyl)sulfinyl]phenyl]methyl)-1H-pyrazolo[3,4-b]pyridine-5-carboxamide], the figures for the IC50 at NAMPT (read-out: Biochemical (IC50)) and with A2780 cells (setting [1]) were 594 nM and 143 nM, respectively.

As to `O=C(NCc1ccc(S(=O)(=O)N2CCC3(CCNC3)CC2)cc1)c1ccc2nccn2c1` [Example 152, Imidazo[1,2-a]pyridine-6-carboxylic acid 4-(2,8-diaza-spiro[4.5]decane-8-sulfonyl)-benzylamide], the IC50 on NAMPT (read-out: Biochemical (IC50)) amounted to 32.1 nM; in the assay with A2780 cells (setting [1]), 30.5 nM.

Take `CC(C)(C)OC(=O)N1C[C@H]2CCN(S(=O)(=O)c3ccc(CNC(=O)c4ccc5nccn5c4)cc3)[C@H]2C1` (racemic) [Example 135, cis-1-(4-{[(Imidazo[1,2-a]pyridine-6-carbonyl)-amino]-methyl}-benzenesulfonyl)-hexahydro-pyrrolo[3,4-b]pyrrole-5-carboxylic acid tert-butyl ester]: the IC50 was 20.2 nM on NAMPT (read-out: Biochemical (IC50)) and 5.52 nM in the assay with A2780 cells (setting [1]).

For the compound `CN1C2COCC1CN(S(=O)(=O)c1ccc(CNC(=O)c3ccc4nccn4c3)cc1)C2` (racemic) [Example 162, cis-Imidazo[1,2-a]pyridine-6-carboxylic acid 4-(9-methyl-3-oxa-7,9-diaza-bicyclo[3.3.1]nonane-7-sulfonyl)-benzylamide], the IC50 at NAMPT (Biochemical (IC50)) was 122 nM; in the assay with A2780 cells (Homo sapiens, A2780, 72 h), 59.8 nM.

Consider `CC(C)N1CCC(S(=O)(=O)c2ccc(CNC(=O)c3ccc4nccn4c3)cc2)CC1` [Example 315, N-[[4-[(1-isopropyl-4-piperidyl)sulfonyl]phenyl]methyl]imidazo[1,2-a]pyridine-6-carboxamide], for which the IC50 on NAMPT (read-out: Biochemical (IC50)) worked out at 89 nM; in the assay on A2780 cells (setting [1]), 30.3 nM.
